Laboratory results as given in the NIST ThermoML archive (doi:10.1016/j.jct.2005.03.007).
± gives the expanded uncertainty stated by the source.

Experiment: Solid-liquid equilibrium temperature
Settings: Crystal

CCCCCCCCCCCCCCCC [hexadecane]
pressure-volume curve discontinuity
Settings | Solid-liquid equilibrium temperature [K]
9210 kPa | 293.15 ± 0.3
50650 kPa | 303.15 ± 0.58
95560 kPa | 313.15 ± 0.9
143920 kPa | 323.15 ± 1.2
195740 kPa | 333.15 ± 1.5
251030 kPa | 343.15 ± 1.9

CCCCCCCCCCCCCCCCCC [octadecane]
pressure-volume curve discontinuities
Settings | Solid-liquid equilibrium temperature [K]
8860 kPa | 303.15 ± 0.3
49600 kPa | 313.15 ± 0.57
94900 kPa | 323.15 ± 0.88
144780 kPa | 333.15 ± 1.2
199220 kPa | 343.15 ± 1.5
258230 kPa | 353.15 ± 1.8

c1ccccc1 [benzene]
pressure-volume curve discontinuity
Settings | Solid-liquid equilibrium temperature [K]
53620 kPa | 293.15 ± 0.65
92220 kPa | 303.15 ± 0.99
133290 kPa | 313.15 ± 1.3
176820 kPa | 323.15 ± 1.6
222810 kPa | 333.15 ± 1.9
271270 kPa | 343.15 ± 2.2
322200 kPa | 353.15 ± 2.6
